Our source for the MIC values is DBAASP.

Common to all, as to experiment: ≥ marks a high value that may be exact or a test limit, other limits are often not marked, values filed in µg/mL are converted to µM
In assay [1] the test system is Bacillus cereus.
The test system of assay [2] is Enterococcus faecalis.
Assay [3] deals with Escherichia coli.
The subject of assay [4] is Leuconostoc lactis.
Assay [5] concerns Listeria innocua.
For assay [6], the system named is Micrococcus luteus.
Assay [7] deals with Pasteurella multocida.
Assay [8] concerns Staphylococcus aureus.
Assay [9] concerns Staphylococcus epidermidis.
Assay [10] deals with Streptococcus uberis.
For assay [11], the system named is Candida albicans.
The subject of assay [12] is Klebsiella pneumoniae.
For assay [13], the system named is Proteus mirabilis.
Assay [14] deals with Pseudomonas aeruginosa.
In assay [15] the test system is Salmonella typhimurium.
Assay [16] relates to Serratia marcescens.
The subject of assay [17] is Shigella dysenteriae.
Assay [18] deals with Escherichia coli ATCC 25922.
Assay [19] deals with Pseudomonas aeruginosa PAO1.
For assay [20], the system named is Staphylococcus aureus USA 300.
Assay [21] has as its system Acinetobacter baumannii.
Assay [22] concerns Candida albicans ATCC 2002.
Assay [23] has as its system Enterococcus faecium.
The subject of assay [24] is Staphylococcus aureus ATCC 2592.
Assay [25] relates to Pseudomonas aeruginosa CMCCB 10104.
Assay [26] has as its system Staphylococcus aureus ATCC 25923.

SMILES strings stand for the structures. ≈ marks a conversion by molar mass, not a printed value.

For orientation: MIC means the lowest concentration that inhibits growth of the organism. Low readings indicate greater potency, high ones weaker potency.

As to `CC[C@H](C)[C@H](NC(=O)[C@H](C)NC(=O)[C@@H]1CCCN1C(=O)[C@@H](NC(=O)[C@@H](NC(=O)[C@H](Cc1cnc[nH]1)NC(=O)[C@H](CO)NC(=O)[C@H](C)NC(=O)[C@@H](NC(=O)[C@H](CCCCN)NC(=O)[C@H](C)NC(=O)[C@H](CC(C)C)NC(=O)[C@@H](NC(=O)CNC(=O)[C@H](Cc1ccccc1)NC(=O)[C@H](CC(C)C)NC(=O)CN)C(C)C)C(C)C)C(C)C)C(C)C)C(=O)N[C@@H](C)C(=O)N[C@@H](CCC(=O)O)C(=O)N[C@@H](Cc1cnc[nH]1)C(=O)N[C@@H](Cc1ccccc1)C(=O)N[C@@H](CCC(N)=O)C(=O)N[C@@H](C)C(N)=O` [GLFGVLAKVASHVVPAIAEHFQA], the MIC in assay [1] was ≥ 42.3 µM; in assay [2] it was ≥ 42.3 µM; in assay [3], > 42.3 µM; in [4], ≥ 42.3 µM; in assay [5], ≥ 42.3 µM; in [6] it was ≥ 42.3 µM. Further, the MIC in assay [7] was ≥ 42.3 µM; in assay [8], 21.2 µM (≈ 50 µg/mL); in [9] it was ≥ 42.3 µM; in [10] it was 2.54 µM (≈ 6 µg/mL).

Take `CC[C@H](C)[C@H](NC(=O)[C@@H](NC(=O)[C@H](CO)NC(=O)[C@H](C)NC(=O)[C@@H](NC(=O)[C@H](CCCCN)NC(=O)[C@H](CCCCN)NC(=O)[C@@H](NC(=O)[C@@H](NC(=O)[C@H](CCCCN)NC(=O)[C@H](Cc1ccccc1)NC(=O)[C@H](CC(C)C)NC(=O)CN)C(C)C)[C@@H](C)CC)C(C)C)C(C)C)C(=O)NCC(=O)NCC(=O)N[C@@H](CC(C)C)C(N)=O` [GLFKVIKKVASVIGGL]: the minimum inhibitory concentration (MIC) was 30.7 µM (≈ 50 µg/mL) in [1]; > 61.4 µM in assay [3]; 3.68 µM (≈ 6 µg/mL) in [4]; ≥ 61.4 µM in assay [5]; 7.37 µM (≈ 12 µg/mL) in assay [6]; ≥ 61.4 µM in assay [7]. Also, the results for the MIC in assay [8], in assay [9] and in assay [10] were 15.3 µM (≈ 25 µg/mL), 7.37 µM (≈ 12 µg/mL) and 30.7 µM (≈ 50 µg/mL), respectively.

`CC[C@H](C)[C@H](NC(=O)[C@H](C)NC(=O)[C@H](CCSC)NC(=O)CNC(=O)[C@H](CCCCN)NC(=O)[C@@H](NC(=O)[C@H](CO)NC(=O)[C@H](CC(=O)O)NC(=O)[C@H](CC(C)C)NC(=O)[C@H](CC(C)C)NC(=O)CN)[C@@H](C)CC)C(=O)N[C@@H](CO)C(=O)N[C@@H](C)C(=O)NCC(=O)N[C@@H](CCCCN)C(=O)NCC(=O)N[C@@H](C)C(=O)N[C@@H](CC(C)C)C(=O)N[C@@H](CCC(N)=O)C(=O)N[C@@H](CC(N)=O)C(=O)N[C@@H](CC(C)C)C(=O)N[C@@H](CC(C)C)C(=O)N[C@@H](CCCCN)C(=O)N[C@H](C(=O)N[C@@H](C)C(=O)N[C@@H](CO)C(=O)N[C@H]1CSSC[C@@H](C(=O)O)NC(=O)[C@H]([C@@H](C)O)NC(=O)[C@H](CCCCN)NC(=O)[C@H](CC(=O)O)NC(=O)[C@H](CC(C)C)NC(=O)[C@H](CCCCN)NC1=O)C(C)C` [GLLDSIKGMAISAGKGALQNLLKVASCKLDKTC]: the MIC is 29.9 µM (≈ 99.9 µg/mL) in assay [11]; 2.99 µM (≈ 9.99 µg/mL) in [12]; 0.747 µM (≈ 2.5 µg/mL) in assay [6]; ≥ 59.7 µM in assay [13]; 22.4 µM (≈ 75 µg/mL) in assay [14]; 6.72 µM (≈ 22.5 µg/mL) in assay [15]. The results for the MIC in assay [16] and in assay [17] were ≥ 59.7 µM and 2.99 µM (≈ 9.99 µg/mL), respectively.

As for `CC(C)C[C@H](NC(=O)[C@H](CC(C)C)NC(=O)[C@H](CCCCN)NC(=O)CNC(=O)[C@H](C)NC(=O)[C@H](C)NC(=O)[C@H](CCCCN)NC(=O)[C@H](CC(C)C)NC(=O)[C@H](C)NC(=O)[C@H](CO)NC(=O)[C@H](CC(C)C)NC(=O)[C@H](CC(C)C)NC(=O)CN)C(N)=O` [GLLSALKAAGKLL], the MIC in [18] is 12.5 µM (≈ 15.7 µg/mL); in assay [19] it was > 25 µM; in [20], 12.5 µM (≈ 15.7 µg/mL).

On to `CC[C@H](C)[C@H](NC(=O)[C@@H](NC(=O)[C@@H]1CCCN1C(=O)[C@@H](NC(=O)[C@@H](NC(=O)[C@H](Cc1cnc[nH]1)NC(=O)[C@@H]1CCCN1C(=O)[C@H](CC(C)C)NC(=O)[C@@H](NC(=O)[C@H](Cc1cnc[nH]1)NC(=O)[C@H](CCCCN)NC(=O)[C@H](C)NC(=O)[C@@H](NC(=O)[C@H](CO)NC(=O)CNC(=O)[C@H](CC(C)C)NC(=O)[C@@H](NC(=O)[C@H](CO)NC(=O)[C@H](CC(C)C)NC(=O)[C@H](CC(C)C)NC(=O)CN)C(C)C)C(C)C)C(C)C)C(C)C)C(C)C)C(C)C)C(=O)N[C@@H](C)C(=O)N[C@@H](CCC(=O)O)C(=O)N[C@@H](CCCCN)C(=O)N[C@@H](CC(C)C)C(N)=O` [GLLSVLGSVAKHVLPHVVPVIAEKL], for which the MIC is ≥ 38.8 µM in assay [1]; > 38.8 µM in assay [3]; 2.33 µM (≈ 6 µg/mL) in [4]; 19.4 µM (≈ 50 µg/mL) in [5]; 9.7 µM (≈ 25 µg/mL) in [6]; ≥ 38.8 µM in assay [7]. Further, the MIC in assay [8] is > 38.8 µM; in assay [9] it was ≥ 38.8 µM; in assay [10], 19.4 µM (≈ 50 µg/mL).

In the case of `CC[C@H](C)[C@H](NC(=O)CNC(=O)[C@H](CO)NC(=O)[C@@H](NC(=O)[C@H](CC(C)C)NC(=O)[C@H](CCC(=O)O)NC(=O)[C@H](CO)NC(=O)[C@H](C)NC(=O)[C@H](CCCCN)NC(=O)[C@H](CCC(=O)O)NC(=O)[C@H](CCCCN)NC(=O)[C@@H](NC(=O)[C@H](CCCCN)NC(=O)[C@H](CCC(=O)O)NC(=O)[C@H](Cc1c[nH]c2ccccc12)NC(=O)[C@H](CC(C)C)NC(=O)CN)[C@@H](C)CC)C(C)C)C(=O)N[C@H](C(=O)N[C@@H](CCC(=O)O)C(=O)NCC(=O)N[C@H](C(=O)N[C@@H](CCCCN)C(=O)O)C(C)C)C(C)C` [GLWEKIKEKASELVSGIVEGVK], the MIC was ≥ 41.7 µM in [1]; > 41.7 µM in [3]; ≥ 41.7 µM in [4]; ≥ 41.7 µM in [5]; 1.25 µM (≈ 3 µg/mL) in assay [6]; ≥ 41.7 µM in [7]. In addition, the MIC in assay [8] was > 41.7 µM; in assay [9] it was ≥ 41.7 µM; in [10] it was ≥ 41.7 µM.

Turning to `CC[C@H](C)[C@H](NC(=O)[C@H](CCCCN)NC(=O)[C@H](CS)NC(=O)[C@H](CC(C)C)NC(=O)CNC(=O)CNC(=O)[C@H](C)NC(=O)[C@@H](NC(=O)[C@H](CC(N)=O)NC(=O)[C@H](CCCCN)NC(=O)[C@H](CC(C)C)NC(=O)[C@@H](NC(=O)[C@H](CC(N)=O)NC(=O)[C@H](C)NC(=O)[C@H](Cc1c[nH]c2ccccc12)NC(=O)CN)[C@@H](C)O)C(C)C)C(=O)N[C@H](C(=O)NCC(=O)N[C@@H](C)C(=O)N[C@@H](C)C(=O)O)[C@@H](C)O` [GWANTLKNVAGGLCKITGAA], the MIC in assay [21] is 19.3 µM (≈ 37.5 µg/mL); in assay [22], ≥ 38.6 µM; in assay [23], 19.3 µM (≈ 37.5 µg/mL); in assay [18], > 51.4 µM; in [12] it was > 51.4 µM; in assay [16], ≥ 51.4 µM. Also, the MIC in [24] was 19.3 µM (≈ 37.5 µg/mL).

As for `CC[C@H](C)[C@H](NC(=O)[C@H](Cc1ccccc1)NC(=O)[C@@H](N)CCCN=C(N)N)C(=O)N[C@@H](Cc1ccc(O)cc1)C(=O)N[C@@H](CCSC)C(=O)N[C@@H](CCCCN)C(=O)NCC(=O)N[C@@H](Cc1ccccc1)C(=O)NCC(=O)N[C@@H](CCCCN)C(=O)N1CCC[C@H]1C(=O)N[C@@H](CCCN=C(N)N)C(=O)N[C@@H](Cc1ccccc1)C(=O)NCC(=O)N[C@@H](CCCCN)C(=O)N[C@@H](CCCN=C(N)N)C(=O)O` [RFIYMKGFGKPRFGKR], the MIC was found to be 25.1 µM (≈ 50 µg/mL) in assay [22], 50.3 µM (≈ 100 µg/mL) in assay [18], 12.6 µM (≈ 25 µg/mL) in assay [25] and 12.6 µM (≈ 25 µg/mL) in assay [26].
